Experimental data from patent US12077503B2, “Substituted cyclic amides and their use as herbicides” (FMC CORPORATION, priority 2015, dated 2024).

Experiments:
Format in all cases: in vivo
[1] = system: Galium (catchweed bedstraw, Galium aparine); assay: Test A postemergence
In short: (§1)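 Seeds sprayed preemergence with a directed soil spray, or plants at 2 to 10 cm height and one- to two-leaf stage sprayed postemergence, with test chemicals in a non-phytotoxic solvent mixture containing surfactant, in loam soil–sand blend. Injury rated visually against untreated controls after about 10 d in greenhouse, 0 (no effect) to 100 (complete control).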

[2] = system: Kochia (Kochia scoparia); assay: Test A postemergence
In short: as §1

[3] = system: pigweed (Amaranthus retroflexus); assay: Test A postemergence
In short: as §1

[4] = system: corn (Zea mays); assay: Test A postemergence
In short: as §1

[5] = system: blackgrass (Alopecurus myosuroides); assay: Test A postemergence
In short: as §1

[6] = system: ragweed (common ragweed, Ambrosia elatior); assay: Test A postemergence
In short: as §1

[7] = system: ryegrass, Italian (Italian ryegrass, Lolium multiflorum); assay: Test A postemergence
In short: as §1

[8] = system: wheat (Triticum aestivum); assay: Test A postemergence
In short: as §1

[9] = system: barnyardgrass (Echinochloa crus-galli); assay: Test A postemergence
In short: as §1

[10] = system: giant foxtail (Setaria faberii); assay: Test A postemergence
In short: as §1

[11] = system: sedge, umbrella (small-flower umbrella sedge, Cyperus difformis); assay: Test B flooded paddy test; conditions: Flood, 500 g ai/ha; 0 to 100 scale where 0 is no effect and 100 is complete control; 13 to 15 d
In short: (§2)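 Flooding to 3 cm over soil accompanied treatment, which consisted of adding compound to the standing water around 2-leaf plants; depth was then maintained. Visual assessment versus controls followed at 13 to 15 d (scale 0–100, 0 meaning no effect).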

[12] = system: rice (Oryra sativa); assay: Test B flooded paddy test; conditions: Flood, 500 g ai/ha; 0 to 100 scale where 0 is no effect and 100 is complete control; 13 to 15 d
In short: as §2

[13] = system: ducksalad (Heteranthera limosa); assay: Test B flooded paddy test; conditions: Flood, 500 g ai/ha; 0 to 100 scale where 0 is no effect and 100 is complete control; 13 to 15 d
In short: as §2

[14] = system: barnyardgrass (Echinochloa crus-galli); assay: Test B flooded paddy test; conditions: Flood, 500 g ai/ha; 0 to 100 scale where 0 is no effect and 100 is complete control; 13 to 15 d
In short: as §2

[15] = system: Kochia (Kochia scoparia); assay: Test A preemergence
In short: as §1

[16] = system: pigweed (Amaranthus retroflexus); assay: Test A preemergence
[17] = system: ragweed (common ragweed, Ambrosia elatior); assay: Test A preemergence
In short: as §1

[18] = system: ryegrass, Italian (Italian ryegrass, Lolium multiflorum); assay: Test A preemergence
In short: as §1

[19] = system: barnyardgrass (Echinochloa crus-galli); assay: Test A preemergence
In short: as §1

[20] = system: giant foxtail (Setaria faberii); assay: Test A preemergence
In short: as §1

[21] = 125 g ai/ha, postemergence, visual injury after approximately 10 d, 0 to 100 scale (0 no effect, 100 complete control)
[22] = 500 g ai/ha, postemergence, visual injury, 0 to 100 scale (0 no effect, 100 complete control), approx. 10 d
[23] = 125 g ai/ha, preemergence, visual rating after approx. 10 d, 0 to 100 scale where 0 is no effect and 100 is complete control
[24] = 500 g ai/ha, preemergence, 0 to 100 scale, 0 = no effect, 100 = complete control
[25] = 125 g ai/ha, postemergence, visual rating after approx. 10 d, 0 to 100 scale (0 no effect, 100 complete control)
[26] = Postemergence, 500 g ai/ha, 0 to 100 scale where 0 is no effect and 100 is complete control
[27] = 125 g ai/ha, postemergence, visual injury rating on 0 to 100 scale (0 no effect, 100 complete control), approx. 10 d
[28] = 125 g ai/ha, Preemergence, visual injury after approximately 10 d, 0 to 100 scale where 0 is no effect and 100 is complete control
[29] = Preemergence, 500 g ai/ha, visual injury approx. 10 d

Q: For `O=C1NCC(c2ccc(I)cc2)C1C(=O)Nc1ccccc1Cl` (racemic) [Compound 704], which “Plant response rating, Galium” value [1, 21] is on record?
A: 20

Q: And the “Plant response rating, Galium” value [1, 22]?
A: 40

Q: And the “Plant response rating, Kochia” value [2, 21]?
A: 0

Q: What about the “Plant response rating, Kochia” value [2, 22] of the same compound?
A: 20

Q: What about the “Plant response rating, Pigweed” value [3, 21] of the same compound?
A: 0

Q: What about the “Plant response rating, Pigweed” value [3, 22] of the same compound?
A: 20

Q: What about the “Plant response rating, Corn” value [4, 21] of the same compound?
A: 0

Q: And the “Plant response rating, Corn” value [4, 22]?
A: 0

Q: And the “Plant response rating, Blackgrass” value [5, 21]?
A: 0

Q: And the “Plant response rating, Blackgrass” value [5, 22]?
A: 30

Q: What about the “Plant response rating, Ragweed” value [6, 21] of the same compound?
A: 0

Q: And the “Plant response rating, Ragweed” value [6, 22]?
A: 20

Q: What about the “Plant response rating, Ryegrass, Italian” value [7, 21] of the same compound?
A: 0

Q: What about the “Plant response rating, Ryegrass, Italian” value [7, 22] of the same compound?
A: 20

Q: And the “Plant response rating, Wheat” value [8, 21]?
A: 0

Q: What about the “Plant response rating, Wheat” value [8, 22] of the same compound?
A: 0

Q: What about the “Plant response rating, Barnyardgrass” value [9, 21] of the same compound?
A: 70

Q: And the “Plant response rating, Barnyardgrass” value [9, 22]?
A: 90

Q: And the “Plant response rating, Foxtail, Giant” value [10, 21]?
A: 70

Q: What about the “Plant response rating, Foxtail, Giant” value [10, 22] of the same compound?
A: 90

Q: And the “Plant response rating, Sedge, Umbrella” value [11]?
A: 0

Q: And the “Plant response rating, Rice” value [12]?
A: 0

Q: What about the “Plant response rating, Ducksalad” value [13] of the same compound?
A: 85

Q: What about the “Plant response rating, Barnyardgrass” value [14] of the same compound?
A: 30

Q: What about the “Plant response rating, Kochia” value [15, 23] of the same compound?
A: 0

Q: What about the “Plant response rating, Kochia” value [15, 24] of the same compound?
A: 30

Q: And the “Plant response rating, Pigweed” value [16, 23]?
A: 0

Q: What about the “Plant response rating, Pigweed” value [16, 24] of the same compound?
A: 30

Q: What about the “Plant response rating, Ragweed” value [17, 23] of the same compound?
A: 0

Q: What about the “Plant response rating, Ragweed” value [17, 24] of the same compound?
A: 20

Q: What about the “Plant response rating, Ryegrass, Italian” value [18, 23] of the same compound?
A: 0

Q: What about the “Plant response rating, Ryegrass, Italian” value [18, 24] of the same compound?
A: 20

Q: What about the “Plant response rating, Barnyardgrass” value [19, 23] of the same compound?
A: 40

Q: What about the “Plant response rating, Barnyardgrass” value [19, 24] of the same compound?
A: 90

Q: And the “Plant response rating, Foxtail, Giant” value [20, 23]?
A: 90

Q: What about the “Plant response rating, Foxtail, Giant” value [20, 24] of the same compound?
A: 90

Q: `O=C1NCC(c2ccc(Oc3ccccc3)cc2)C1C(=O)Nc1ccc(F)cc1F` (racemic) [Compound 535] was tested. Which “Plant response rating, Galium” value [1, 25] did it give?
A: 0

Q: What about the “Plant response rating, Galium” value [1, 26] of the same compound?
A: 0

Q: What about the “Plant response rating, Kochia” value [2, 25] of the same compound?
A: 0

Q: What about the “Plant response rating, Kochia” value [2, 26] of the same compound?
A: 0

Q: And the “Plant response rating, Pigweed” value [3, 25]?
A: 0

Q: What about the “Plant response rating, Pigweed” value [3, 26] of the same compound?
A: 0

Q: And the “Plant response rating, Corn” value [4, 25]?
A: 0

Q: And the “Plant response rating, Corn” value [4, 26]?
A: 0

Q: And the “Blackgrass plant response rating” value [5, 27]?
A: 0

Q: What about the “Plant response rating, Blackgrass” value [5, 26] of the same compound?
A: 0

Q: And the “Plant response rating, Ragweed” value [6, 25]?
A: 0

Q: What about the “Plant response rating, Ragweed” value [6, 26] of the same compound?
A: 0

Q: And the “Plant response rating, Ryegrass, Italian” value [7, 25]?
A: 0

Q: What about the “Plant response rating, Ryegrass, Italian” value [7, 26] of the same compound?
A: 0

Q: What about the “Plant response rating, Wheat” value [8, 25] of the same compound?
A: 0

Q: What about the “Plant response rating, Wheat” value [8, 26] of the same compound?
A: 0

Q: And the “Barnyardgrass plant response rating” value [9, 27]?
A: 0

Q: What about the “Plant response rating, Barnyardgrass” value [9, 26] of the same compound?
A: 0

Q: And the “Plant response rating, Foxtail, Giant” value [10, 25]?
A: 0

Q: And the “Plant response rating, Foxtail, Giant” value [10, 26]?
A: 0

Q: What about the “Plant response rating, Sedge, Umbrella” value [11] of the same compound?
A: 50

Q: And the “Plant response rating, Rice” value [12]?
A: 0

Q: And the “Plant response rating, Ducksalad” value [13]?
A: 20

Q: And the “Plant response rating, Barnyardgrass” value [14]?
A: 0

Q: And the “Plant response rating, Kochia” value [15, 28]?
A: 0

Q: And the “Kochia plant response rating (0 to 100 scale, 0 is no effect, 100 is complete control)” value [15, 29]?
A: 0

Q: What about the “Plant response rating, Pigweed” value [16, 28] of the same compound?
A: 0

Q: And the “Pigweed plant response rating (0 to 100 scale, 0 is no effect, 100 is complete control)” value [16, 29]?
A: 0

Q: What about the “Plant response rating, Ragweed” value [17, 28] of the same compound?
A: 0

Q: And the “Ragweed plant response rating (0 to 100 scale, 0 is no effect, 100 is complete control)” value [17, 29]?
A: 0

Q: And the “Plant response rating, Ryegrass, Italian” value [18, 28]?
A: 0

Q: And the “Ryegrass, Italian plant response rating (0 to 100 scale, 0 is no effect, 100 is complete control)” value [18, 29]?
A: 0

Q: What about the “Plant response rating, Barnyardgrass” value [19, 28] of the same compound?
A: 0

Q: What about the “Barnyardgrass plant response rating (0 to 100 scale, 0 is no effect, 100 is complete control)” value [19, 29] of the same compound?
A: 0

Q: And the “Plant response rating, Foxtail, Giant” value [20, 28]?
A: 0

Q: And the “Foxtail, Giant plant response rating (0 to 100 scale, 0 is no effect, 100 is complete control)” value [20, 29]?
A: 0
